Here are results for two molecules from patent US20050159485A1, “Combinations for the treatment of immunoinflammatory disorders and proliferative skin diseases” (priority 2002, published 2005).

Broadly, the inhibition is how much of the control response was suppressed.

In assay [1] the test system is TNFα secretion from stimulated white blood cells. As to the kind of experiment: TNFα ELISA, white blood cells stimulated with phorbol 12-myristate 13-acetate and ionomycin. More on the design: inhibition of TNFα secretion: dose or concentration left out as unconfirmed. Type of assay: cell-based, human. Particulars: PMA/ionomycin. The protocol: (§1) Stock solutions at 1.6 mg/ml of alprostadil, and 4.0 mg/ml of […] (Sigma-Aldrich, St. Louis, Mo.; catalog numbers P5515 and R-2625, respectively) were made in dimethylsulfoxide (DMSO). The alprostadil master plates were made by adding 25 μl of the concentrated stock solution to columns 3, 9, and 15 (rows C through N) of a polypropylene 384-well storage plate that had been pre-filled with 75 μl of anhydrous DMSO. Using a TomTec Quadra Plus liquid handler, the 25 μl of alprostadil stock solution was serially diluted four times into the adjacent columns (columns 4-7, 10-13, 16-19). […] The tretinoin master plates were made by adding 25 μl of the concentrated stock solution to the appropriate wells (row C, columns 3-8; row C, columns 9-14; row C, columns 15-20; row I, columns 3-8; row I, columns 9-14; row I, columns 15-20) of the appropriate master polypropylene 384-well storage plate. These master plates had been pre-filled with 75 μl of anhydrous DMSO. Using the TomTec Quadra Plus liquid handler, the 25 μl was serially diluted four times in the adjacent rows (rows D-G, and J-M). […] Master plates were sealed and stored at −20° C. until ready for use.
The final alprostadil/tretinoin combination plates were generated by transferring 1 μl from each of the alprostadil and tretinoin master plates to a dilution plate containing 100 μl of media (RPMI; Gibco BRL, #11875-085), 10% Fetal Bovine Serum (Gibco BRL, #25140-097), 2% Penicillin/Streptomycin (Gibco BRL, #15140-122)) using the TomTec Quadra Plus liquid handler. This dilution plate was then mixed and a 10 μl aliquot transferred to the final assay plate, which had been pre-filled with 40 μl/well RPM media containing the appropriate stimulant to activate TNFα secretion (see below).
(§2) The compound dilution matrix was assayed using a TNFα ELISA method. Briefly, a […] suspension of diluted human white blood cells contained within each well of a polystyrene 384-well plate (NalgeNunc) was stimulated to secrete TNFα by treatment with a final concentration of 10 ng/ml phorbol 12-myristate 13-acetate (Sigma) and 750 ng/ml ionomycin (Sigma). Various concentrations of each test compound were added at the time of stimulation. After 16-18 hours of incubation at 37° C. in a humidified incubator, the plate was centrifuged and the supernatant transferred to a white opaque polystyrene 384 well plate (NalgeNunc, Maxisorb) coated with an anti-TNFα antibody (PharMingen, #18631D). After a two-hour incubation, the plate was washed (Tecan PowerWasher 384) with phosphate buffered saline (PBS) containing 0.1% Tween 20 (polyoxyethylene sorbitan monolaurate) and incubated for an additional one hour with another anti-TNFα antibody that was biotin labeled (PharMingen, 18642D) and horseradish peroxidase (HRP) coupled to strepavidin (PharMingen, #13047E).). After the plate was washed with 0.1% Tween 20/PBS, an HRP-luminescent substrate was added to each well and light intensity measured using a LJL Analyst plate luminometer. Sets of control wells contained a serial dilution of Cyclosporin A (Sigma) starting at a final concentration of 0.5 μg/ml.
The combination of 0.052 μM tretinoin and 0.004 μM alprostadil was able to suppress TNFα secretion by 42%. […] Maximal tretinoin efficacy (−36% TNFα suppression) is therefore maintained while reducing the concentration of total drug species by greater than 90% (0.052 μM tretionoin+0.004 μM alprostadil compared to 0.832 μM tretinoin alone).
(An ELISA detects its analyte on a solid surface through an enzyme-linked reagent.)

Assay [2] has the same test system. As to the kind of experiment: Secondary screen, TNFα ELISA, white blood cells stimulated using 1 μg/ml LPS. Type of assay: cell-based, human. The protocol: as §1
This dilution plate was then mixed and a 10 μl aliquot transferred to the final assay plate, which had been pre-filled with 40 μl/well RPM media containing the appropriate stimulant to activate TNFα secretion (see below).
as §2
In this experiment, white blood cells were stimulated using 1 μg/ml LPS.

[3] abbreviates: Homo sapiens, Alprostadil 0.004 μM alone.
The mark [4] stands for this setting: Homo sapiens, Alprostadil 0.018 μM alone.
The mark [5] stands for this setting: Homo sapiens, Alprostadil 0.071 μM alone.
Setting [6] is: Homo sapiens, Tretinoin 0.052 μM alone.
Where [7] appears, read: Homo sapiens, Tretinoin 0.208 μM alone.
[8] abbreviates: Homo sapiens, Tretinoin 0.832 μM alone.
Setting [9] is: Homo sapiens, Tretinoin 3.329 μM alone.
[10] abbreviates: Homo sapiens, Tretinoin 13.316 μM alone.

Take `CCCCC[C@H](O)/C=C/[C@H]1[C@H](O)CC(=O)[C@@H]1CCCCCCC(=O)O` [Alprostadil, (11α, 13E, 15S)-11,15-dihydroxy-9-oxoprost-13-enoic acid]: the inhibition at 0.004 µM was determined as 33.3% in assay [1] (setting [3]) and 44.6% in assay [2] (setting [3]). Further, the inhibition at 0.018 µM in assay [1] (setting [4]) came to 39.8%; in assay [2] (setting [4]) it was 54.8%. Besides, the inhibition at 0.071 µM in assay [1] (setting [5]) is 50.5%; in assay [2] (setting [5]), 71.5%. Moreover, in assay [1] (Homo sapiens, Alprostadil 0.283 μM alone), the inhibition at 0.283 µM came to 53.8%. Further, in assay [1] (Homo sapiens, Alprostadil 1.130 μM alone), the inhibition at 1.13 µM is 56.8%. In assay [1] (alprostadil alone), the “inhibition of TNFα secretion” value is given as 57%. This molecule also yielded an inhibition at 0.009 µM in assay [2] (Homo sapiens, Alprostadil 0.009 μM alone) of 49.2%. In addition, in assay [2] (Homo sapiens, Alprostadil 0.035 μM alone), the inhibition at 0.035 µM was found to be 57.3%. This molecule yielded an inhibition at 0.141 µM in assay [2] (Homo sapiens, Alprostadil 0.141 μM alone) of 74.3%. Also, in assay [2] (Homo sapiens, Alprostadil 0.282 μM alone), the inhibition at 0.282 µM was found to be 75.7%. The molecule also had an inhibition at 0.564 µM in assay [2] (Homo sapiens, Alprostadil 0.564 μM alone) of 79.5%. The molecule further came in with an inhibition at 1.128 µM in assay [2] (Homo sapiens, Alprostadil 1.128 μM alone) of 81.6%. For the same molecule, the “alprostadil concentration needed alone to attain 64.0% TNFα inhibition” value in assay [2] (alprostadil alone) is not below 0.035 µM. Further, the “maximal TNFα-inhibitory effect” value in assay [2] (alprostadil alone, concentration of at least 1.128 μM) is given as 82%.

Turning to `CC1=C(/C=C/C(C)=C/C=C/C(C)=C/C(=O)O)C(C)(C)CCC1` [Tretinoin, 3,7-dimethyl-9-(2,6,6-trimethylcyclohex-1-enyl)nona-2,4,6,8-all-trans-tetraenoic acid], the inhibition at 0.052 µM was 13.8% in assay [1] (setting [6]) and 32.7% in assay [2] (setting [6]). The inhibition at 0.208 µM in assay [1] (setting [7]) worked out at 28.7%; in assay [2] (setting [7]), 32.5%. For the same molecule, the inhibition at 0.832 µM in assay [1] (setting [8]) amounted to 34.5%; in assay [2] (setting [8]), 38.4%. In addition, the inhibition at 3.329 µM was 34.1% in assay [1] (setting [9]) and 44.1% in assay [2] (setting [9]). The inhibition at 13.316 µM in assay [1] (setting [10]) came to 36.2%; in assay [2] (setting [10]) it was 52.1%. Besides, the “maximal inhibition of TNFα secretion” value in assay [1] (tretinoin alone, concentrations ranging from 0.83-13.3 μM) stood at 36%. In assay [2] (Homo sapiens, Tretinoin 0.104 μM alone), 0.104 µM produced 35.1% inhibition. The molecule also gave an inhibition at 0.416 µM in assay [2] (Homo sapiens, Tretinoin 0.416 μM alone) of 32.7%. Also, at 1.664 µM the inhibition in assay [2] (Homo sapiens, Tretinoin 1.664 μM alone) was 37.6%. Also, in assay [2] (Homo sapiens, Tretinoin 6.658 μM alone), 6.658 µM produced 48.7% inhibition. Further, in assay [2] (tretinoin alone, concentrations from 6.7-13.3 μM), the TNFα inhibition result is listed as “approximately 50%”.
